The record followed here is patent publication US10975081B2, “Substituted fused pyrazole compounds and their use as LRRK2 inhibitors” (GlaxoSmithKline Intellectual Property Development Limited, priority 2015, dated 2021).

Structures can show the parent of a compound that is named as a salt.

The target in experiment [1] is LRRK2 Ser935 phosphorylation in SH-SY5Y cells over-expressing recombinant full length LRRK2 (Homo sapiens (Human), UniProt Q5S007). Kind of experiment: Recombinant cellular LRRK2 AlphaScreen assay. It is filed as cell-based. The following applies: 60 minutes, read-out: Recombinant cellular LRRK2 alphaScreen assay (pIC50) (converted). The source says: To determine the activity of compounds against LRRK2 kinase activity in cells, the observed LRRK2 kinase-dependent modulation of LRRK2 Ser 935 phosphorylation (Dzamko et al., 2010, Biochem. J. 430: 405-413) was utilized to develop a quantitative 384 well plate-based immunoassay of LRRK2 Ser935 phosphorylation in the human neuroblastoma cell line SH-SY5Y, engineered to over-express recombinant full length LRRK2 protein.
A BacMam virus expressing full length recombinant LRRK2 was purchased from Invitrogen and amplified by inoculation of SF-9 cells at MOI 0.3 for 4-5 days in Sf-900 III SFM medium supplemented with 3% fetal bovine serum. Infected cell cultures were then centrifuged at 2000 g for 20 minutes, viral supernatant titer determined by anti-gp64 plaque assay and stored at 4° C.
Affinity-purified anti-phospho LRRK2 Ser935 sheep polyclonal antibody (Dzamko et al., 2010, Biochem. J. 430: 405-413) was biotinylated by standard methods (PerkinElmer). Anti-LRRK2 rabbit polyclonal antibody was purchased from Novus Biologicals. AlphaScreen Protein A IgG Kit (including acceptor and donor beads) was purchased from Perkin Elmer.
SH-SY5Y cells were grown in DMEM/F12 medium with 10% dialysed fetal bovine serum and harvested by treatment with 0.5% trypsin-EDTA for 5 minutes at 37° C. followed by centrifugation at 1000 rpm for 4 minutes. The cell pellet was resuspended in Opti-MEM reduced serum media (Invitrogen) at 200,000 cells/ml and mixed with the BacMam LRRK2 virus at M01=50. 50 μl cell solutions were then dispensed to each well of a 384-well plate and incubated at 37° C., 5% CO2 for 24 hours.
Serial dilutions of test compounds were prepared in Opti-MEM reduced serum media (Invitrogen) and 5.6 ul transferred from compound plate to cell assay plate to achieve a top final assay concentration of 10 uM. DMSO was used in certain wells as controls. Cells were incubated at 37° C., 5% CO2 for 60 minutes. The medium was then removed and cells lysed by addition of 20 ul cell lysis buffer (Cell Signaling Technology) and incubation at 4° C. for 20 minutes. 10 ul of antibody/acceptor bead mix [( 1/1000 biotinylated-pS935 LRRK2 antibody, 1/1000 total-LRRK2 antibody, 1/100 Acceptor beads in AlphaScreen detection buffer (25 mM Hepes (pH 7.4), 0.5% Triton X-100, 1 mg/ml Dextran 500 and 0.1% BSA)] was then added to each well and plates incubated for 2 hours at ambient temperature in the dark. 10 μl of donor beads solution (1/33.3 donor beads in AlphaScreen detection buffer) was then added to each well. Following incubation for a further 2 hours at ambient temperature in the dark, plates were read on an EnVision™ plate reader at emission 520-620 nm with excitation 680 nm. Dose response curve data was based on sigmoidal dose-response model.

The target in experiment [2] is Truncated G2019 human LRRK2 (1326-2527) (Homo sapiens (Human), UniProt Q5S007). The experiment is described as follows: Truncated G2019 human LRRK2 (1326-2527) inhibition mass spectrometry assay. It is filed as biochemical. The following applies: 6HIS-Tev-LRRK2 (1326-2527), 25 uM LRRKtide, 20 uM ATP; for IC50: read-out: Truncated G2019 human LRRK2 inhibition mass spectrometry assay (pIC50) (converted). The text has this:
1) Truncated G2019 Human LRRK2 (1326-2527) Inhibition Mass Spectrometry Assay
A LRRK2 cDNA encoding residues 1326-2527 was received from Dundee University (described in M. Jaleel et al., 2007, Biochem J, 405: 407-417). This gene fragment was subcloned into pFB-HTb (Invitrogen) using BamHI and NotI restriction sites. The LRRK2 plasmid was recombined into the baculovirus genome according to the BAC-to-BAC protocol described by Invitrogen. Transfection into Spodoptera frugiperda (Sf9) insect cells was performed using Cellfectin (Invitrogen), according to the manufacturer's protocol to generate P1 and P2 baculovirus stocks.
Sf9 cells were grown in HyClone SFX (Thermo Scientific) growth media at 27° C., 80 rpm in shake flask until of a sufficient volume to inoculate a bioreactor. The cells were grown in a 20 litre working volume Wave bioreactor (GE Healthcare) at 27° C., 50% dissolved oxygen and an agitation rate 22 rocks per minute, 10 degree rock angle, 200 ml/min air with a cell concentration of approximately 6xe6 cells/ml. The cells were infected with P2 Baculovirus at a multiplicity of infection (MOI) of 3. The cultivation was continued for a 48 hour expression phase. The infected cells were removed from the growth media by centrifugation at 2500 g using a Sorvall RC 3C Plus centrifuge at 2500 g for 20 minutes. The cell pellet was immediately frozen and subsequently supplied for purification.
A 260 g pellet was allowed to thaw in a water bath at 27° C. with 800 ml lysis buffer/buffer A (50 mm Tris-HCl pH 8.5, 300 mM NaCl, 1 mm DTT, 10% glycerol, 1 ml/L Calbiochem complete protease inhibitor cocktail and benzonase (50 ul/800 ml)) before being dounce homogenised on ice using 20 strokes per 100 ml. The suspension was packed in ice and sonicated at 50% amplitude for 3 min 10 sec on/off using a ¾″ probe. The suspension was then centrifuged at 100,000 g for 90 min, at 4° C.
The lysate (700 ml) was decanted from the insoluble pellet and contacted for 3h at 4° C. with 10 ml His bind Ni NTA resin by end over end mixing. The resin was recovered by centrifugation, 3000 g, 5 min at 4° C., and packed in an XK16 column. The column was then washed with 10 column volumes buffer A, 10 column volumes buffer B (buffer A+1M NaCl) and 10 column volumes buffer C (buffer A+20 mM imidazole). The column was then eluted with 15 column volumes buffer D (buffer A+300 mM imidazole) collecting 2 ml fractions. All washes and elution were conducted at 4 ml/min.
Fractions identified by SDS-PAGE as containing protein of interest were pooled and loaded directly onto a 320 ml SEC Superdex 200 pg column that was pre-equilibrated with buffer E (50 mM Tris-HCl pH 8.5, 300 mM NaCl, 10% glycerol, 1 mM DTT). The column was loaded and eluted with 1.2 column volumes buffer E at 2 ml/min collecting 2 ml fractions. Fractions identified by SDS-PAGE as containing protein of interest were tested for activity.
Production of LRRKtide for LRRK2 Inhibition Mass Spectrometry Assay
The ‘LRRKtide’ peptide (SEQ ID NO. 10) was synthesized as follows. The protected peptide was assembled on a solid-phase synthesiser using preloaded Wang resin and utilising standard Fmoc synthesis protocols. The crude peptide was obtained after cleavage from the resin with a mixture of trifluoroacetic acid (TFA), triisopropylsilane and water (95:2.5:2.5) for 3 hours at room temperature and was then purified using a C18 reverse-phase column utilising a 0.1% TFA-buffered water/acetonitrile gradient. The resulting fractions were analysed and fractions which were >95% pure by analytical HPLC and giving the correct molecular weight (mw) (by MALDiTOF mass spectroscopy) were pooled and freeze dried. The final material was analysed by HPLC and MALDiTOF mass spectroscopy.
Truncated G2019 Human LRRK2 (1326-2527) Inhibition Mass Spectrometry Assay […]

Sequence of Truncated G2019 human LRRK2 (1326-2527) (Q5S007 1326-2527): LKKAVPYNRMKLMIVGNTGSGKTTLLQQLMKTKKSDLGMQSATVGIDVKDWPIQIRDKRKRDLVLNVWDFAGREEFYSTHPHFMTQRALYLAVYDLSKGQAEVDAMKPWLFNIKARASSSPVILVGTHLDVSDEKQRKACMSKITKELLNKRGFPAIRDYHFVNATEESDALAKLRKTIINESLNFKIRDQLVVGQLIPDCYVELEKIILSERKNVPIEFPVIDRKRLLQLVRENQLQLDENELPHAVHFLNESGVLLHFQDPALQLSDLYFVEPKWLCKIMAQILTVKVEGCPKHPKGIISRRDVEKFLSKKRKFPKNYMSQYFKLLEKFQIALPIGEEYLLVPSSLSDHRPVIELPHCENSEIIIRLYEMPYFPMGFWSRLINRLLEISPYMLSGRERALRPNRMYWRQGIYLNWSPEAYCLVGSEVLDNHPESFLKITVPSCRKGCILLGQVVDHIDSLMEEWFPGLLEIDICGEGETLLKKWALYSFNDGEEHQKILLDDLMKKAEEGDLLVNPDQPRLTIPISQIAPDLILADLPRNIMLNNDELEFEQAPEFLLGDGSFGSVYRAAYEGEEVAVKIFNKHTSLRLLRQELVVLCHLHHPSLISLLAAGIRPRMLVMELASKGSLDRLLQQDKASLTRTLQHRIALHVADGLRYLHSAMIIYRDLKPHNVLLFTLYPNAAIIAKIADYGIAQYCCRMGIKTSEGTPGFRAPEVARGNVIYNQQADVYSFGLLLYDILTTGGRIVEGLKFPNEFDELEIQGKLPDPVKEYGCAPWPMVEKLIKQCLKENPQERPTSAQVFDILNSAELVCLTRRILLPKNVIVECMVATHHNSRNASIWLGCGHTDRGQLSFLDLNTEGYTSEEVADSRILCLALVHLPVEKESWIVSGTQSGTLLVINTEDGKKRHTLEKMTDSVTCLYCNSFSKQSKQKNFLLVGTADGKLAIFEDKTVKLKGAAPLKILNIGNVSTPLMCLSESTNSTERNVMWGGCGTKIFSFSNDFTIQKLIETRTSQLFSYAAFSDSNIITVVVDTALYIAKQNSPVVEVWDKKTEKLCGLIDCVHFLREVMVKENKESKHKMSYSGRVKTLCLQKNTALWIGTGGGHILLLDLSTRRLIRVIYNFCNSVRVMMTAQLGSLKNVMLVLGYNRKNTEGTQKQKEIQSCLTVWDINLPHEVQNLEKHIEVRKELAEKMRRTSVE
Sequence of LRRK2 Ser935 phosphorylation in SH-SY5Y cells over-expressing recombinant full length LRRK2 (Q5S007 whole entry): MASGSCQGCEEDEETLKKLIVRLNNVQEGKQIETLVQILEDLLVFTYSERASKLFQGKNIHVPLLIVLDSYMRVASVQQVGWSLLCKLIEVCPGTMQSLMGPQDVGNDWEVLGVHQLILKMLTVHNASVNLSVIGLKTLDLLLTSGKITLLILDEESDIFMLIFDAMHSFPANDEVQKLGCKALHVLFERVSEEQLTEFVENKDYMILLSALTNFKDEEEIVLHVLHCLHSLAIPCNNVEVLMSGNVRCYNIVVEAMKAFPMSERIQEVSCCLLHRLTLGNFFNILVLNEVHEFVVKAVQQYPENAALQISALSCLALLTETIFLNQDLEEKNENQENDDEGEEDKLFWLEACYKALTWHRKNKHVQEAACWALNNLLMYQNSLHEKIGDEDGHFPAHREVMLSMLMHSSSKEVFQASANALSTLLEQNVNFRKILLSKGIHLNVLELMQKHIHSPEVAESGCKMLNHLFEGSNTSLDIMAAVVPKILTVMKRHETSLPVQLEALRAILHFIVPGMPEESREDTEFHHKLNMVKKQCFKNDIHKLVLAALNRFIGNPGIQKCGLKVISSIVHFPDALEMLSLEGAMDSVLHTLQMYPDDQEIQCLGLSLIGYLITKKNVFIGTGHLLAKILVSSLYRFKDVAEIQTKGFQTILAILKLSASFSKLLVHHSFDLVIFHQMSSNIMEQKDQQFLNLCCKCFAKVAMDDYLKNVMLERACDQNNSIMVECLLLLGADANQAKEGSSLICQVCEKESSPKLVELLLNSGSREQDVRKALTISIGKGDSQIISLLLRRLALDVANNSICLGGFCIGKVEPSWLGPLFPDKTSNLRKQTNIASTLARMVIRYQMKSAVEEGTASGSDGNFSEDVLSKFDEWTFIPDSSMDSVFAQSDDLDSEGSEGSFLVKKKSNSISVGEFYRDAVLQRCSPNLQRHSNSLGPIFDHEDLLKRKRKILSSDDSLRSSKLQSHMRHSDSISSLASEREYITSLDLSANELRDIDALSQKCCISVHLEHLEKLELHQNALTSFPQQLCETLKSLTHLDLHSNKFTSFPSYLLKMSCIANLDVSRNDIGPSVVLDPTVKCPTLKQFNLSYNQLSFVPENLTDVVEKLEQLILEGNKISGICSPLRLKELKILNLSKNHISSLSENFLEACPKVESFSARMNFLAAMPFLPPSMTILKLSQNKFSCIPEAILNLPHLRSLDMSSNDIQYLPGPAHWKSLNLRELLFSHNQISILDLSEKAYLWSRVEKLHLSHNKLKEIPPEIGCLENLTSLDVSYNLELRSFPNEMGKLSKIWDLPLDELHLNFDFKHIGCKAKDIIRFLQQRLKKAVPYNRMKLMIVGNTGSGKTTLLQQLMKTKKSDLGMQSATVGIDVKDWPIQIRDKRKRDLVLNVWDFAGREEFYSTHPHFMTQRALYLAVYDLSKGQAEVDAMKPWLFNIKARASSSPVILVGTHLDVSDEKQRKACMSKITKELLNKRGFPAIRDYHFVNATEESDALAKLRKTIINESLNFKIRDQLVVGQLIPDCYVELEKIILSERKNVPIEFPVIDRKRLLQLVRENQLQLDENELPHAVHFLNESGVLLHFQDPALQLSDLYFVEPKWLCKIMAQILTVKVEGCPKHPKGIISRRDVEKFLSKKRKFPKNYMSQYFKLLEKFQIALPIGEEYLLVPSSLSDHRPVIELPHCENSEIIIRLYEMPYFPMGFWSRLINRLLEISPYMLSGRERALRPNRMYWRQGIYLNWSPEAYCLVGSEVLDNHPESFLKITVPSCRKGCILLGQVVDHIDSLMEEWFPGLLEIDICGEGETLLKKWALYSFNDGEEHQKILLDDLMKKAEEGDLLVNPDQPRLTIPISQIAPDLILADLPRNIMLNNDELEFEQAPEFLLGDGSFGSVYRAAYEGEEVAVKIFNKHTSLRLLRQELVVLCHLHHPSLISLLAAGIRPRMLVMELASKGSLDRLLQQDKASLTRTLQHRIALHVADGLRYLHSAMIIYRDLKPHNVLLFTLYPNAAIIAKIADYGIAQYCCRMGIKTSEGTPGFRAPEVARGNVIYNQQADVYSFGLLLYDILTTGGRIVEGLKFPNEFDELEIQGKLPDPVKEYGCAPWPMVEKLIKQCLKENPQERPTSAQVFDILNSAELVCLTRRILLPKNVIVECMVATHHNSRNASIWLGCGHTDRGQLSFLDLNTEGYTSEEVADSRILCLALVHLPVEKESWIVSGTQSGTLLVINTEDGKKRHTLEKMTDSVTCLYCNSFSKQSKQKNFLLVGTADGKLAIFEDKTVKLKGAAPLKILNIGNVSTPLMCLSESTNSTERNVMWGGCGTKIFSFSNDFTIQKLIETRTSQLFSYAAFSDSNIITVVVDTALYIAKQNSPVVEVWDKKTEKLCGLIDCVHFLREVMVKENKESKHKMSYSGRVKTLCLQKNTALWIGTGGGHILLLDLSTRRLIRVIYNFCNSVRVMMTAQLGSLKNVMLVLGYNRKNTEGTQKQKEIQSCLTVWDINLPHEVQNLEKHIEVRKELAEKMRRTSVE

For the compound `COc1nc(N2CC(O)C2)cc(-n2ncc3cc(C)c(C4CCN(C)CC4F)cc32)n1` (single isomer, unassigned) [Example E39, (cis)-1-(6-(6-(3-Fluoro-1-methylpiperidin-4-yl)-5-methyl-1H-indazol-1-yl)-2-methoxypyrimidin-4-yl)azetidin-3-ol], the IC50 in experiment [1] was 5.01 nM; in experiment [2] it was 10 nM.
The like results for `COc1nc(N2CC(C#N)C2)cc(-n2ncc3cc(C)c(C4CCNCC4(F)F)cc32)n1` (single isomer, unassigned) [Example E66, 1-(6-(6-(3,3-Difluoropiperidin-4-yl)-5-methyl-1H-indazol-1-yl)-2-methoxypyrimidin-4-yl)azetidine-3-carbonitrile] were, in that order, 126 nM and 31.6 nM.
In the case of `COc1nc(N2CCOCC2)cc(-n2ncc3cc(C)c([C@H]4CCNC[C@H]4F)cc32)n1` (single isomer, unassigned) [Example E62, (cis)-4-(6-(6-(3-Fluoropiperidin-4-yl)-5-methyl-1H-indazol-1-yl)-2-methoxypyrimidin-4-yl)morpholine hydrochloride], the IC50 was 50.1 nM in experiment [1] and 7.94 nM in experiment [2].
The like results for `Cc1nc(N2CC(O)C2)cc(-n2ncc3cc(C)c(C4CCN(C)CC4F)cc32)n1` (single isomer, unassigned) [Example E40, (cis)-1-(6-(6-(3-Fluoro-1-methylpiperidin-4-yl)-5-methyl-1H-indazol-1-yl)-2-methylpyrimidin-4-yl)azetidin-3-ol] were, in that order, 50.1 nM and 12.6 nM.
Turning to `COc1nc(N2CC(O)C2)cc(-n2ncc3cc(C)c(C4CCN(C)CC4F)cc32)n1` (single isomer, unassigned) [Example E38, (cis)-1-(6-(6-(3-Fluoro-1-methylpiperidin-4-yl)-5-methyl-1H-indazol-1-yl)-2-methoxypyrimidin-4-yl)azetidin-3-ol], the IC50 in experiment [1] is 31.6 nM. Moreover, the “Truncated G2019 human LRRK2 inhibition mass spectrometry assay (pIC50)” value in experiment [2] was determined as 8.
Consider `CNC(=O)[C@H]1CN(c2cc(-n3ncc4cc(C)c(C5CCN(C)CC5(F)F)cc43)nc(OC)n2)CCO1` (single isomer, unassigned) [Example E18], for which the IC50 in experiment [1] and in experiment [2] was 12.6 nM throughout.
Take `COc1nc(N2CCOCC2)cc(-n2ncc3cc(C)c(C4CCN(C)CC4(F)F)cc32)n1` (single isomer, unassigned) [Example E4, 4-(6-(6-(3,3-Difluoro-1-methylpiperidin-4-yl)-5-methyl-1H-indazol-1-yl)-2-methoxypyrimidin-4-yl)morpholine]: the IC50 is 25.1 nM in experiment [1] and 7.94 nM in experiment [2].
The matching figures for `COc1nc(N2CC(O)C2)cc(-n2ncc3cc(C)c(C4CCN(C5COC5)CC4)cc32)n1` [Example E79, 1-(2-Methoxy-6-(5-methyl-6-(1-(oxetan-3-yl)piperidin-4-yl)-1H-indazol-1-yl)pyrimidin-4-yl)azetidin-3-ol]: 10 nM and 12.6 nM.
The matching figures for `COc1nc(N2CCNCC2)cc(-n2ncc3cc(C)c(N4CCOCC4)cc32)n1` [Example E117, 4-(1-(2-Methoxy-6-(piperazin-1-yl)pyrimidin-4-yl)-5-methyl-1H-indazol-6-yl)morpholine]: 631 nM and 25.1 nM.
`Cc1nc(N2CC(O)C2)cc(-n2ncc3cc(C)c(C4CCN(C)CC4F)cc32)n1` (single isomer, unassigned) [Example E41, (cis)-1-(6-(6-(3-Fluoro-1-methylpiperidin-4-yl)-5-methyl-1H-indazol-1-yl)-2-methylpyrimidin-4-yl)azetidin-3-ol]: the IC50 in experiment [1] is 126 nM. Further, the “Truncated G2019 human LRRK2 inhibition mass spectrometry assay (pIC50)” value in experiment [2] is on record as 7.9.
On to `Cc1nc(N2CCO[C@H](CO)C2)cc(-n2ncc3cc(C)c(C4CCCCO4)cc32)n1` (single isomer, unassigned) [Example E271], for which, in experiment [1], the IC50 was over 10000 nM.
As for `CNC(=O)[C@H]1CN(c2cc(-n3ncc4cc(C)c(C5CCN(C6COC6)CC5F)cc43)ncn2)CCO1` (single isomer, unassigned) [Example E35], the IC50 in experiment [1] was at most 100 nM.
Still for that read-out and setting: the result for `CNC(=O)[C@@H]1CN(c2cc(-n3ncc4cc(C)c(C5CCN(CCOC)CC5F)cc43)ncn2)CCO1` (single isomer, unassigned) [Example E30] reads at most 100 nM.
Turning to `Cc1nc(N2CC[C@H](O)C2)cc(-n2ncc3cc(C)c(C4CCN(C)CC4F)cc32)n1` (single isomer, unassigned) [Example E128], the IC50 in experiment [1] was at most 100 nM.
On to `Cc1cc2cnn(-c3cc(N4CC(O)C4)nc(OC(F)F)n3)c2cc1C1CCN(C)CC1F` (single isomer, unassigned) [Example E48, (cis)-1-(2-(Difluoromethoxy)-6-(6-(3-fluoro-1-methylpiperidin-4-yl)-5-methyl-1H-indazol-1-yl)pyrimidin-4-yl)azetidin-3-ol], for which the IC50 in experiment [2] is at most 10000 nM.
Take `COc1nc(N2CC(O)C(F)C2)cc(-n2ncc3cc(C)c(C4CCN(C5COC5)CC4)cc32)n1` (single isomer, unassigned) [Example E219, (trans)-4-Fluoro-1-(2-methoxy-6-(5-methyl-6-(1-(oxetan-3-yl)piperidin-4-yl)-1H-indazol-1-yl)pyrimidin-4-yl)pyrrolidin-3-ol]: the IC50 in experiment [1] was at most 100 nM.
